{
  "source": "patent US10759790B2",
  "about": "“Heterocyclic constrained tricyclic sulfonamides as anti-cancer agents” (ICAHN SCHOOL OF MEDICINE AT MOUNT SINAI, priority 2015, dated 2020)",
  "key": {"[1]": {"system": "H1650 lung cancer cells", "experiment": "Cell viability assay (MTT, IC50 determination)", "assay_type": "cell-based", "details": "Homo sapiens, read-out: H1650 cell viability IC50", "description": "Cell viability assays were performed according to Denizot, F. and R. Lang, Journal of Immunological Methods, 1986. 89(22): p. 271-277. H1650 lung cancer cells were plated at 150,000 cells per well in a 12 well plate. Twenty-four hours after plating, cells were treated as described with increasing concentrations of drug and control. Forty-eight hours after drug treatment, cells were treated with 100 μL of 3-(4,5-Dimethylthiazol-2-yl)-2,5-diphenyltetrazolium bromide (MTT) and incubated for 2 hours at 37 C. The MTT solution was subsequently replaced with 300 μL of n-propyl alcohol and re-aliquoted to a 96 well plate. Spectrophotometric analysis of each solution was performed using a 96 well plate reader at 600 nm in triplicate."}, "[2]": {"experiment": "In vivo cancer model: body weights and signs of toxicity (Example 2a)", "set-up": "species or system BALB/c nu/nu mice", "details": "5 mg/kg BID oral gavage", "description": "(§1) To assess the in vivo effects of the compounds, subcutaneous xenograft of lung cancer cell line H358 was generated. Cells (5×10^6) were injected into the right flank of 6- to 8-week-old male BALB/c nu/nu mice (Charles River, Wilmington, Mass.). Tumor volume was assessed twice a week by caliper measurement. Mice were randomized to treatment groups based on initial tumor volume average of 200 mm^3 per group. Mice were dosed by oral gavage with 5 mg/kg Example 2a BID. Mouse tumors were measured twice a week for the duration of the study. Mouse body weights were recorded weekly and percentage of mice body weights during treatment was calculated as: weight at each time point/initial weight×100."}, "[3]": {"system": "lung cancer cell line H358", "experiment": "In vivo cancer model: subcutaneous H358 xenograft, tumor volume (Example 2a)", "set-up": "species or system BALB/c nu/nu mice", "details": "5 mg/kg BID oral gavage", "description": "as §1"}, "[4]": {"experiment": "In vivo H358 xenograft model: body weights and signs of toxicity (Example 17b)", "set-up": "species or system BALB/c nu/nu mice", "details": "5 mg/kg BID oral gavage", "description": "(§2) To evaluate the efficacy of Example 17b in vivo, xenograft model was utilized using the H358 cell line. H358 cells (1×10^7) were injected into the right flank of 6- to 8-week-old male BALB/c nu/nu mice. Mice were randomized to treatment groups based on initial tumor volume. Tumor volume was assessed twice a week by caliper measurement, until volumes reached an average of 200 mm^3. Mice were treated by oral gavage with vehicle control or Example 17b (5 mg/kg) BID. The treatment schedules were initiated, and the mouse tumors were measured every other day for the duration of the study. Mice body weights were recorded weekly and percentage of mice body weights during treatment was calculated as: weight at each time point/initial weight×100."}, "[5]": {"system": "H358 cell line", "experiment": "In vivo H358 xenograft model, tumor volume (Example 17b)", "set-up": "species or system BALB/c nu/nu mice", "details": "5 mg/kg BID oral gavage, treatment day 32", "description": "as §2"}, "[6]": {"details": "NCI-H1650, H1650 lung cancer cells, MTT, 48 hours after drug treatment"}},
  "note": "Like-named read-outs stand apart in the source and are kept apart here.",
  "data": [
    {"smiles": "O=S(=O)(N[C@@H]1COC[C@H](N2c3ccccc3Oc3ccccc32)[C@H]1O)c1ccc(OC(F)(F)F)cc1", "note": "[Example 2a, N-((3R,4R,5S)-4-hydroxy-5-(10H-phenoxazin-10-yl)tetrahydro-2H-pyran-3-yl)-4-(trifluoromethoxy)benzenesulfonamide]", "values": [
      {"measurement": "IC50", "setting": "[1]; [6]", "value": 15, "unit": "µM"},
      {"measurement": "Signs of toxicity (mucous diarrhea, abdominal stiffness and weight loss)", "setting": "[2]", "value": "no adverse signs were observed"},
      {"measurement": "Toxicity as judged from animal body weights versus vehicle control", "setting": "[2]", "value": "No statistically significant toxicity was observed"},
      {"measurement": "% T/C (mean body weight)", "setting": "[2]; H358 xenograft mice", "value": 96.36, "unit": "%"},
      {"measurement": "% T/C (median body weight)", "setting": "[2]; H358 xenograft mice", "value": 96.92, "unit": "%"},
      {"measurement": "Mean body weight", "setting": "[2]; H358 xenograft mice", "value": 30.21, "unit": "g"},
      {"measurement": "Median body weight", "setting": "[2]; H358 xenograft mice", "value": 29.95, "unit": "g"},
      {"measurement": "% T/C (mean tumor volume)", "setting": "[3]; treatment day 17", "value": 28.82, "unit": "%"},
      {"measurement": "% T/C (median tumor volume)", "setting": "[3]; treatment day 17", "value": 25.82, "unit": "%"},
      {"measurement": "Inhibition of tumor growth versus vehicle control", "setting": "[3]; treatment day 17", "value": "statistically significant inhibition of tumor (T) growth versus vehicle control (C)"},
      {"measurement": "Mean Tumor Volume (T)", "setting": "[3]; treatment day 17, in mm³", "value": 208.64},
      {"measurement": "Median Tumor Volume (T)", "setting": "[3]; treatment day 17, in mm³", "value": 191.78}
    ]},
    {"smiles": "O=S(=O)(N[C@H]1CNC[C@@H](N2c3ccccc3Oc3ccccc32)[C@@H]1O)c1ccc(OC(F)(F)F)cc1", "note": "[Example 17b, N-((3S,4S,5R)-4-hydroxy-5-(10H-phenoxazin-10-yl)piperidin-3-yl)-4-(trifluoromethoxy)benzenesulfonamide]", "values": [
      {"measurement": "IC50", "setting": "[1]; [6]", "value": 10, "unit": "µM"},
      {"measurement": "Signs of toxicity (mucous diarrhea, abdominal stiffness and weight loss)", "setting": "[4]", "value": "no adverse signs were observed"},
      {"measurement": "Toxicity as judged from animal body weights versus vehicle control", "setting": "[4]", "value": "No statistically significant toxicity was observed"},
      {"measurement": "% T/C (mean body weight)", "setting": "[4]; H358 xenograft mice", "value": 100.5, "unit": "%"},
      {"measurement": "% T/C (median body weight)", "setting": "[4]; H358 xenograft mice", "value": 99.4, "unit": "%"},
      {"measurement": "Mean body weight", "setting": "[4]; H358 xenograft mice", "value": 34.41, "unit": "g"},
      {"measurement": "Median body weight", "setting": "[4]; H358 xenograft mice", "value": 34.1, "unit": "g"},
      {"measurement": "% T/C (mean tumor volume)", "setting": "[5]", "value": 55, "unit": "%"},
      {"measurement": "% T/C (median tumor volume)", "setting": "[5]", "value": 54, "unit": "%"},
      {"measurement": "Inhibition of tumor growth versus vehicle control", "setting": "[5]", "value": "statistically significant inhibition of tumor (T) growth versus vehicle control (C)"},
      {"measurement": "Mean Tumor Volume (T)", "setting": "[5]", "value": 562, "unit": "mm^3"},
      {"measurement": "Median Tumor Volume (T)", "setting": "[5]", "value": 520, "unit": "mm^3"}
    ]},
    {"smiles": "CC(C)(C)OC(=O)N1C[C@@H](NS(=O)(=O)c2ccc(OC(F)(F)F)cc2)[C@H](O)[C@@H](n2c3ccccc3c3ccccc32)C1", "note": "[Example 52a, (3S,4R,5R)-tert-butyl 3-(9H-carbazol-9-yl)-4-hydroxy-5-(4-(trifluoromethoxy)phenylsulfonamido)piperidine-1-carboxylate]", "values": [
      {"measurement": "IC50", "setting": "[1]; [6]", "value": 5, "unit": "µM"}
    ]},
    {"smiles": "CC(C)(C)OC(=O)N1C[C@@H](NS(=O)(=O)c2ccc(OC(F)(F)F)cc2)[C@H](O)[C@@H](n2c3ccc(F)cc3c3cc(F)ccc32)C1", "note": "[Example 54, (3S,4R,5R)-tert-butyl 3-(3,6-difluoro-9H-carbazol-9-yl)-4-hydroxy-5-(4-(trifluoromethoxy)phenylsulfonamido)piperidine-1-carboxylate]", "values": [
      {"measurement": "IC50", "setting": "[1]; [6]", "value": 5, "unit": "µM"}
    ]},
    {"smiles": "O=S(=O)(N[C@@H]1COC[C@H](N2c3ccccc3Oc3ccccc32)[C@H]1O)c1ccccc1Cl", "note": "[Example 65, 2-chloro-N-((3R,4R,5S)-4-hydroxy-5-(10H-phenoxazin-10-yl)tetrahydro-2H-pyran-3-yl)benzenesulfonamide]", "values": [
      {"measurement": "IC50", "setting": "[1]; [6]", "value": 20, "unit": "µM"}
    ]},
    {"smiles": "CC(C)(C)c1ccc2c(c1)c1ccccc1n2[C@H]1CNC[C@@H](NS(=O)(=O)c2ccc(OC(F)(F)F)cc2)[C@@H]1O", "note": "[Example 53a, N-((3R,4R,5S)-5-(3-(tert-butyl)-9H-carbazol-9-yl)-4-hydroxypiperidin-3-yl)-4-(trifluoromethoxy)benzenesulfonamide]", "values": [
      {"measurement": "IC50", "setting": "[1]; [6]", "value": 5, "unit": "µM"}
    ]},
    {"smiles": "CC(=O)N1C[C@H](NS(=O)(=O)c2ccc(OC(F)(F)F)cc2)[C@@H](O)[C@H](N2c3ccccc3Oc3ccccc32)C1", "note": "[Example 18b, N-((3S,4S,5R)-1-acetyl-4-hydroxy-5-(10H-phenoxazin-10-yl)piperidin-3-yl)-4-(trifluoromethoxy)benzenesulfonamide]", "values": [
      {"measurement": "IC50", "setting": "[1]; NCI-H1650, 48 h", "value": 15, "unit": "µM"}
    ]},
    {"smiles": "CC(C)(C)OC(=O)Nc1cccc(S(=O)(=O)N[C@@H]2COC[C@H](N3c4ccccc4Oc4ccccc43)[C@H]2O)c1", "note": "[Example 68, tert-butyl (3-(N-((3R,4R,5S)-4-hydroxy-5-(10H-phenoxazin-10-yl)tetrahydro-2H-pyran-3-yl)sulfamoyl)phenyl)carbamate]", "values": [
      {"measurement": "IC50", "setting": "[1]; [6]", "value": 5, "unit": "µM"}
    ]},
    {"smiles": "CC(=O)N1C[C@@H](NS(=O)(=O)c2ccc(OC(F)(F)F)cc2)[C@H](O)[C@@H](N2c3ccccc3Oc3ccccc32)C1", "note": "[Example 18a, N-((3R,4R,5S)-1-acetyl-4-hydroxy-5-(10H-phenoxazin-10-yl)piperidin-3-yl)-4-(trifluoromethoxy)benzenesulfonamide]", "values": [
      {"measurement": "IC50", "setting": "[1]; NCI-H1650, 48 h", "value": 25, "unit": "µM"}
    ]},
    {"smiles": "O=S(=O)(N[C@@H]1CNC[C@H](N2c3ccccc3Oc3ccccc32)[C@H]1O)c1ccc(OC(F)(F)F)cc1", "note": "[Example 17a, N-((3R,4R,5S)-4-hydroxy-5-(10H-phenoxazin-10-yl)piperidin-3-yl)-4-(trifluoromethoxy)benzenesulfonamide]", "values": [
      {"measurement": "IC50", "setting": "[1]; [6]", "value": 15, "unit": "µM"}
    ]}
  ]
}
